Measurements published in patent US8921267B2, “Safening 6-(trisubstituted phenyl)-4-amino-2-pyridinecarboxylate herbicide injury on cereal crops” (Dow AgroSciences LLC, priority 2008, dated 2014).

What was measured:
Format in all cases: in vivo
Details in all cases: applied alone
[1] = test system: wild buckwheat (Polygonum convolvulus L; POLCO); experiment: Postemergence herbicidal activity, greenhouse, visual injury: wild buckwheat
Method in brief: (§1)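 Percent visual injury relative to solvent-blank controls, rated 20-22 d after treatment on a 0 (none) to 100 (complete kill) scale. Expected mixture response came from Colby's equation, Expected=A+B−(A×B/100). Sprays contained 1.5% v/v crop oil concentrate at 187 L/ha.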

[2] = test system: wheat (Triticum aestivum L; TRZAS); experiment: Postemergence herbicidal safening, greenhouse, visual injury: wheat
Method in brief: as §1

[3] = test system: purple deadnettle (Lamium purpureum L; LAMPU); experiment: Postemergence herbicidal activity, greenhouse, visual injury: purple deadnettle; parameters: key: visual injury, 0–100%: 0 = no injury, 100 = complete kill
Method in brief: (§2)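 Weeds were grown in MetroMix 306 (pH 6.0–6.8) in a greenhouse at about 18/17 °C day/night with a 14 h photoperiod and sprayed at the second or third true leaf stage. Compound 1 ester or salt plus safener in 1.5% v/v Agri-dex was applied at 187 L/ha. Injury was scored visually at 20-22 d (0–100%), with Colby expected values.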

[4] = test system: scented mayweed (Matricaria chamomila L; MATCH); experiment: Postemergence herbicidal activity, greenhouse, visual injury: scented mayweed; parameters: key: % visual injury: 0 = no injury, 100 = complete kill
Description: (§3) Evaluation of Postemergence Herbicidal Safening in Cereal Crops
(§4) Seeds of the desired test plant species were planted in Sun Gro MetroMix® 306 planting mixture, which typically has a pH of 6.0 to 6.8 and an organic matter content of about 30 percent, in plastic pots with a surface area of 103.2 square centimeters (cm^2). When required to ensure good germination and healthy plants, a fungicide treatment and/or other chemical or physical treatment was applied. The plants were grown for 7-36 days (d) in a greenhouse with an approximate 14-hour (h) photoperiod which was maintained at about 18° C. during the day and 17° C. during the night. Nutrients and water were added on a regular basis and supplemental lighting was provided with overhead metal halide 1000-Watt lamps as necessary. The plants were employed for testing when they reached the second or third true leaf stage.
(§5) Weighed amounts of esters (methyl) or salts (TEA [triethylammonium], K [potassium]) of 4-amino-3-chloro-6-(4-chloro-2-fluoro-3-methoxyphenyl)pyridine-2-carboxylic acid (Compound 1) were dissolved in a volume of 97:3 volume/volume (v/v) acetone/dimethylsulfoxide (DMSO) to obtain stock solutions. […] The concentrated stock solutions were diluted with an aqueous mixture of 1.5% v/v of Agri-dex crop oil concentrate to provide the appropriate application rates. Compound requirements are based upon a 12 mL application volume at a rate of 187 liters per hectare (L/ha). Stocks solutions of the safeners were prepared following the same procedure. Spray solutions of the safeners and experimental compound mixtures were prepared by adding the stock solutions to the appropriate amount of dilution solution to form a 12 mL spray solution with active ingredients in two-way combinations. Formulated compounds were applied to the plant material with an overhead Mandel track sprayer equipped with 8002E nozzles calibrated to deliver 187 L/ha over an application area of 0.503 square meters (m^2) at a spray height of 18 inches (43 centimeters (cm)) above average plant canopy. Control plants were sprayed in the same manner with the solvent blank.
(§6) The treated plants and control plants were placed in a greenhouse as described above and watered by sub-irrigation to prevent wash-off of the test compounds. After 20-22 d, the condition of the test plants as compared with that of the control plants was determined visually and scored on a scale of 0 to 100 percent where 0 corresponds to no injury and 100 corresponds to complete kill.
(§7) Colby's equation was used to determine the herbicidal effects expected from the mixtures (Colby, S. R. Calculation of the synergistic and antagonistic response of herbicide combinations. Weeds 1967, 15, 20-22.).
(§8) The following equation was used to calculate the expected activity of mixtures containing two active ingredients, A and B: Expected=A+B−(A×B/100)
(§9) A=observed efficacy of active ingredient A at the same concentration as used in the mixture.
(§10) B=observed efficacy of active ingredient B at the same concentration as used in the mixture.

[5] = test system: corn poppy (Papaver rhoeas L; PAPRH); experiment: Postemergence herbicidal activity, greenhouse, visual injury: corn poppy
Method in brief: as §2

[6] = test system: kochia (Kochia scoparia L; KCHSC); experiment: Postemergence herbicidal activity, greenhouse, visual injury: kochia; parameters: key: % visual injury: 0 = no injury, 100 = complete kill
Description: as §3, §4, §5, §6, §7, §8, §9, §10

[7] = test system: cleavers (Galium aparine L; GALAP); experiment: Postemergence herbicidal activity, greenhouse, visual injury: cleavers; parameters: key: visual injury, 0–100%: 0 = no injury, 100 = complete kill
Method in brief: as §1

[8] = test system: wild pansy (Viola tricolor L; VIOTR); experiment: Postemergence herbicidal activity, greenhouse, visual injury: wild pansy; parameters: key: visual injury, 0–100%: 0 = no injury, 100 = complete kill
Method in brief: as §2

[9] = test system: barley (Hordeum vulgare L; HORVS); experiment: Postemergence herbicidal safening, greenhouse, visual injury: barley
Method in brief: as §1

[10] = test system: bird's-eye speedwell (Veronica persica L; VERPE); experiment: Postemergence herbicidal activity, greenhouse, visual injury: bird's-eye speedwell; parameters: key: visual injury, 0–100%: 0 = no injury, 100 = complete kill
Method in brief: as §1

[11] = test system: Russian thistle (Salsola iberica L; SASKR); experiment: Postemergence herbicidal activity, greenhouse, visual injury: Russian thistle; parameters: key: visual injury, 0–100%: 0 = no injury, 100 = complete kill
Method in brief: as §1

[12] = test system: chickweed (Stellaria media L; STEME); experiment: Postemergence herbicidal activity, greenhouse, visual injury: chickweed; parameters: key: visual injury, 0–100%: 0 = no injury, 100 = complete kill
Method in brief: as §1

CC1(C)OC(c2ccco2)CN1C(=O)C(Cl)Cl (stereo not drawn) [Furilazole (MON 13900)]
POLCO Ob ([1]; 17.5 g/ha): 0
POLCO Ob ([1]; 35 g/ha): 0
POLCO Ob ([1]; 70 g/ha): 0
POLCO Ob ([1]; 140 g/ha): 0
TRZAS Ob ([2]; 17.5 g/ha): 0%
TRZAS Ob ([2]; 35 g/ha): 0%
TRZAS Ob ([2]; 70 g/ha): 0%
TRZAS Ob ([2]; 140 g/ha): 0%
LAMPU Ob ([3]; 17.5 g/ha): 0
LAMPU Ob ([3]; 35 g/ha): 0
LAMPU Ob ([3]; 70 g/ha): 0
LAMPU Ob ([3]; 140 g/ha): 0
MATCH Ob ([4]; 17.5 g/ha): 0
MATCH Ob ([4]; 35 g/ha): 0
MATCH Ob ([4]; 70 g/ha): 0
MATCH Ob ([4]; 140 g/ha): 0
PAPRH Ob ([5]; 17.5 g/ha): 0
PAPRH Ob ([5]; 35 g/ha): 0
PAPRH Ob ([5]; 70 g/ha): 0
PAPRH Ob ([5]; 140 g/ha): 0
KCHSC Ob ([6]; 17.5 g/ha): 0
KCHSC Ob ([6]; 35 g/ha): 0
KCHSC Ob ([6]; 70 g/ha): 0
KCHSC Ob ([6]; 140 g/ha): 0
GALAP Ob ([7]; 17.5 g/ha): 0
GALAP Ob ([7]; 35 g/ha): 0
GALAP Ob ([7]; 70 g/ha): 0
GALAP Ob ([7]; 140 g/ha): 0
VIOTR Ob ([8]; 17.5 g/ha): 0
VIOTR Ob ([8]; 35 g/ha): 0
VIOTR Ob ([8]; 70 g/ha): 0
VIOTR Ob ([8]; 140 g/ha): 0
HORVS Ob ([9]; 17.5 g/ha): 0%
HORVS Ob ([9]; 35 g/ha): 0%
HORVS Ob ([9]; 70 g/ha): 0%
HORVS Ob ([9]; 140 g/ha): 0%
VERPE Ob ([10]; 17.5 g/ha): 0
VERPE Ob ([10]; 35 g/ha): 0
VERPE Ob ([10]; 70 g/ha): 0
VERPE Ob ([10]; 140 g/ha): 0
SASKR Ob ([11]; 17.5 g/ha): 0
SASKR Ob ([11]; 35 g/ha): 0
SASKR Ob ([11]; 70 g/ha): 0
SASKR Ob ([11]; 140 g/ha): 0
STEME Ob ([12]; 17.5 g/ha): 0
STEME Ob ([12]; 35 g/ha): 0
STEME Ob ([12]; 70 g/ha): 0
STEME Ob ([12]; 140 g/ha): 0

N#C/C(=N\OCC1OCCO1)c1ccccc1 [Oxabetrinil]
POLCO Ob ([1]; 17.5 g/ha): 0
POLCO Ob ([1]; 35 g/ha): 0
POLCO Ob ([1]; 70 g/ha): 0
POLCO Ob ([1]; 140 g/ha): 0
TRZAS Ob ([2]; 17.5 g/ha): 0%
TRZAS Ob ([2]; 35 g/ha): 0%
TRZAS Ob ([2]; 70 g/ha): 0%
TRZAS Ob ([2]; 140 g/ha): 0%
LAMPU Ob ([3]; 17.5 g/ha): 0
LAMPU Ob ([3]; 35 g/ha): 0
LAMPU Ob ([3]; 70 g/ha): 0
LAMPU Ob ([3]; 140 g/ha): 0
MATCH Ob ([4]; 17.5 g/ha): 0
MATCH Ob ([4]; 35 g/ha): 0
MATCH Ob ([4]; 70 g/ha): 0
MATCH Ob ([4]; 140 g/ha): 0
PAPRH Ob ([5]; 17.5 g/ha): 0
PAPRH Ob ([5]; 35 g/ha): 0
PAPRH Ob ([5]; 70 g/ha): 0
PAPRH Ob ([5]; 140 g/ha): 0
KCHSC Ob ([6]; 17.5 g/ha): 0
KCHSC Ob ([6]; 35 g/ha): 0
KCHSC Ob ([6]; 70 g/ha): 0
KCHSC Ob ([6]; 140 g/ha): 0
GALAP Ob ([7]; 17.5 g/ha): 0
GALAP Ob ([7]; 35 g/ha): 0
GALAP Ob ([7]; 70 g/ha): 0
GALAP Ob ([7]; 140 g/ha): 0
VIOTR Ob ([8]; 17.5 g/ha): 0
VIOTR Ob ([8]; 35 g/ha): 0
VIOTR Ob ([8]; 70 g/ha): 0
VIOTR Ob ([8]; 140 g/ha): 0
HORVS Ob ([9]; 17.5 g/ha): 0%
HORVS Ob ([9]; 35 g/ha): 0%
HORVS Ob ([9]; 70 g/ha): 0%
HORVS Ob ([9]; 140 g/ha): 0%
VERPE Ob ([10]; 17.5 g/ha): 0
VERPE Ob ([10]; 35 g/ha): 0
VERPE Ob ([10]; 70 g/ha): 0
VERPE Ob ([10]; 140 g/ha): 0
SASKR Ob ([11]; 17.5 g/ha): 0
SASKR Ob ([11]; 35 g/ha): 0
SASKR Ob ([11]; 70 g/ha): 0
SASKR Ob ([11]; 140 g/ha): 0
STEME Ob ([12]; 17.5 g/ha): 0
STEME Ob ([12]; 35 g/ha): 0
STEME Ob ([12]; 70 g/ha): 0
STEME Ob ([12]; 140 g/ha): 0
